Like-named read-outs stand apart in the source and are kept apart here.
Legend:
Assay type in all cases: cell-based
[1] = tested on: Hep3B cells (hepatocellular carcinoma cell line); assay: In vitro MTS cell viability assay (NCI-60 methodology), Hep3B; details: Homo sapiens, 48 h, 2 days drug incubation, 50% reduction vs time zero, read-out: Hep3B LC50
Method in brief: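 Hep3B cells given five 2-fold dilutions of compound for 2 days, with viability by MTS measured at time zero and at end. LC50 is the concentration giving a 50% fall in viable cells relative to the start of treatment, per NCI-60 formula.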

[2] = tested on: SW480 (colon adenocarcinoma cell line); assay: In vitro MTS cell viability assay (NCI-60 methodology), SW480; details: Homo sapiens, SW480 cells, read-out: SW480 LC50
Method: (§1) The cell viability measurement is based on the NCI-60 screening methodology (Nat. Rev. Cancer 6, 813-823, 2006). Briefly, cells are inoculated into 96-well plates at the optimal plating density. After 24 h, one of the two plates for Hep3B cell line is processed to determine a time zero cell viability (Tz) by MTS assay (Promega). Compounds are added over a 2-fold serial dilution to provide a total five drug concentrations plus DMSO control. Plates are incubated for a further 2 days, then measured cell viability by MTS assay [control growth (C) and test growth in the presence of drug at the five concentration levels (Ti)]. The LC50 is calculated from [(Ti−Tz)/Tz]×100=−50, which is the drug concentration resulting in a 50% reduction at the end of the drug treatment as compared to that at the beginning.
(§2) The compounds prepared in Tables 1-10 were tested in three in vitro assays, and the results are shown in Tables 1-10 for Hep3B and Table 11 for SW480 and NCI-H460 shown below. Herein, Hep3B refers to hepatocellular carcinoma cell line, SW480 refers to colon adenocarcinoma cell line, and NCI-H460 refers to human lung cancer cell line.
(§3) Shown in Tables 11 are in vitro activities of exemplary compounds of formula (I).

[3] = tested on: NCI-H460 (human lung cancer cell line); assay: In vitro MTS cell viability assay (NCI-60 methodology), NCI-H460; details: NCI-H460 cells, read-out: NCI-H460 LC50
Method: as §1, §2, §3

| Compound | LC50 ([1]; Table 5, MTS) [nM] | CC50 [2] [nM] | CC50 [3] [nM] | LC50 ([1]; Table 6, MTS) [nM] | LC50 ([1]; Table 9, MTS) [nM] |
| --- | --- | --- | --- | --- | --- |
| O=C(Nc1nc(-c2ccc(OCC(F)(F)C(F)F)nc2)nc2c1cnn2-c1ccccc1)c1ccc([N+](=O)[O-])s1 [Compound 5-56, 5-nitro-N-(1-phenyl-6-(6-(2,2,3,3-tetrafluoropropoxy)pyridin-3-yl)-1H-pyrazolo[3,4-d]pyrimidin-4-yl)thiophene-2-carboxamide] | 400 | 730 | 1100 |  |  |
| O=C(Nc1nc(N2CCC(F)(F)C2)nc2c1cnn2-c1ccccc1)c1ccc([N+](=O)[O-])s1 [Compound 5-6, N-(6-(3,3-difluoropyrrolidin-1-yl)-1-phenyl-1H-pyrazolo[3,4-d]pyrimidin-4-yl)-5-nitrothiophene-2-carboxamide] | 530 | 1960 | 1460 |  |  |
| O=C(Nc1nc(-c2ccc(F)cc2F)nc2c1cnn2-c1ccccc1)c1ccc([N+](=O)[O-])s1 [Compound 5-45, N-(6-(2,4-difluorophenyl)-1-phenyl-1H-pyrazolo[3,4-d]pyrimidin-4-yl)-5-nitrothiophene-2-carboxamide] | 440 | 1110 | 2180 |  |  |
| O=C(Nc1nc(-c2ccc(F)c(F)c2)nc2c1cnn2-c1ccccc1)c1ccc([N+](=O)[O-])s1 [Compound 5-44, N-(6-(3,4-difluorophenyl)-1-phenyl-1H-pyrazolo[3,4-d]pyrimidin-4-yl)-5-nitrothiophene-2-carboxamide] | 250 | 1620 | 4640 |  |  |
| O=C(Nc1nc(-c2ccc3c(c2)OCO3)nc2c1cnn2-c1cccc(Cl)c1)c1ccc([N+](=O)[O-])s1 [Compound 6-39, N-(6-(benzo[d][1,3]dioxol-5-yl)-1-(3-chlorophenyl)-1H-pyrazolo[3,4-d]pyrimidin-4-yl)-5-nitrothiophene-2-carboxamide] |  | 3180 | 1070 | 270 |  |
| CC(C)(C)OC(=O)N1CCC(n2ncc3c(NC(=O)c4ccc([N+](=O)[O-])s4)nc(-c4ccc(Cl)cc4)nc32)CC1 [Compound 9-5, tert-butyl 4-(6-(4-chlorophenyl)-4-(5-nitrothiophene-2-carboxamido)-1H-pyrazolo [3,4-d]pyrimidin-1-yl)piperidine-1-carboxylate] |  | 2780 | 1300 |  | 450 |
| O=C(Nc1nc(-c2ccc(F)nc2)nc2c1cnn2-c1cccc(Cl)c1)c1ccc([N+](=O)[O-])s1 [Compound 6-36, N-(1-(3-chlorophenyl)-6-(6-fluoropyridin-3-yl)-1H-pyrazolo[3,4-d]pyrimidin-4-yl)-5-nitrothiophene-2-carboxamide] |  | 2800 | 670 | 90 |  |
| O=C(Nc1nc(-c2ccc(Cl)c(F)c2)nc2c1cnn2-c1ccc(F)cc1)c1ccc([N+](=O)[O-])s1 [Compound 6-127] |  | 1060 | 450 | 150 |  |
| N#Cc1ccc(-c2nc(NC(=O)c3ccc([N+](=O)[O-])s3)c3cnn(-c4ccccc4)c3n2)cn1 [Compound 5-33, N-(6-(6-cyanopyridin-3-yl)-1-phenyl-1H-pyrazolo[3,4-d]pyrimidin-4-yl)-5-nitrothiophene-2-carboxamide] | 300 | 600 | 1800 |  |  |
| O=C(Nc1nc(-c2ccc(F)nc2)nc2c1cnn2-c1cccc(F)c1)c1ccc([N+](=O)[O-])s1 [Compound 6-90, N-(1-(3-fluorophenyl)-6-(6-fluoropyridin-3-yl)-1H-pyrazolo[3,4-d]pyrimidin-4-yl)-5-nitrothiophene-2-carboxamide] |  | 540 | 560 | 140 |  |
| O=C(Nc1nc(-c2ccc(F)nc2)nc2c1cnn2-c1ccc(C(F)(F)F)cc1)c1ccc([N+](=O)[O-])s1 [Compound 6-54, N-(6-(6-fluoropyridin-3-yl)-1-(4-(trifluoromethyl)phenyl)-1H-pyrazolo[3,4-d]pyrimidin-4-yl)-5-nitrothiophene-2-carboxamide] |  | 340 | 330 | 130 |  |
